From EP3714904B1, “IMINODIACETIC ACID SUBSTITUTED CYCLODEXTRINS AS POTENTIATORS OF BETA-LACTAM ANTIBIOTICS” (NATIONAL CENTER FOR SCIENTIFIC RESEARCH "DEMOKRITOS" (NCSRD), priority 2019, dated 2020)
Where two headings read alike, the source gives them in different places.

Legend:
Escherichia coli = assay: MIC of β-lactams alone or with 50 µM IDACYD against clinical isolates; assay type: cell-based; settings: Escherichia coli, alone
Procedure: (§1) Further the in-vitro inhibitory activity of IDACYDs was tested against highly resistant pathogens. Tables 3, 4 and 5 show the effect of IDACYDs using a collection of 36 highly resistant Gram negative strains (Table 2, Kirby-Bauer disc diffusion method) producing NDM, VIM and IMP type MBLs as well as 6 isolates expressing serine beta-lactamases (ESBLs, AmpCs). […] Clinical isolates co-expressing ESBLs and/or AmpC β-lactamases along with MBLs where re-sensitized to both imipenem and meropenem, as expected. Table 2: Collection of clinical isolates used for in-vitro evaluation

Enterobacter gergoviae = assay: as above; assay type: cell-based; settings: Pluralibacter gergoviae, alone
Procedure: as §1

Providencia stuartii = assay: as above; assay type: cell-based; settings: Providencia stuartii, alone
Procedure: as §1

Acinetobacter baumannii = assay: as above; assay type: cell-based; settings: Acinetobacter baumannii, alone
Procedure: as §1

Proteus mirabilis = assay: as above; assay type: cell-based; settings: Proteus mirabilis, alone
Procedure: as §1

Serratia marcescens = assay: as above; assay type: cell-based; settings: Serratia marcescens, read-out: Meropenem MIC; isolate EUG-815 (VIM, CMY); alone
Procedure: as §1

[1] = system: NDM producing K. pneumoniae clinical strain LA26; assay: Murine sepsis model: 2-hour intervals treatment scheme; assay type: in vivo, CD-1 mice; settings: meropenem monotherapy 30 mg/kg every 2 h for 24 h, intraperitoneal; 140 hours
Procedure: Example 7. […] The animals were rendered neutropenic (<100 neutrophils/mm^3) by intraperitoneal injection of 150 and 100 mg/kg of cyclophosphamide at day -4 and day -1, respectively, before infection. […] The meropenem/ β-IDACYD combination was administrated in all dosing schemes simultaneously. […] Blood samples were taken 0, 6, 24 hours and 7 days after injection of a single dose of antibiotic (five infected animals for each timepoint) were serially diluted in normal saline (10^-1 to 10^-9) and plated on MH agar plates which were incubated for 16 hours at 37°C for determination of viable organisms. All mice that were alive were euthanised 7 days post infection and spleen and liver were harvested. The organs were placed into 1 mL of normal saline on ice and then homogenised. The organ homogenates were then serially diluted in normal saline (10^-1 to 10^-9) and plated on MH agar for CFU enumeration. Without therapy 90% of mice succumbed to the infection within 24 hours. […] Finally, the bacterial load in the spleen was relieved by 4.2 log10 compared to that of the antibiotic itself. In Fig.6 is shown the bacterial load (CFU/mL) (A) and survival percentage (B) of CD-1 mice infected with a lethal dose (10^7 CFU) of NDM-1 producing K. pneumoniae strain LA26. […] Treatment (initiated at 2 hours post infection) was given every 2h for a 24h period and blood was drawn 0 h, 6 h, 24 h and 140 h post treatment initiation. All groups were of n=10. Spleen and liver (C) from n=5 mice were also removed at 140 h post-treatment initiation the bacterial load [log (CFU/organ)] was determined. Error bars are indicative of SEM (n=2 replicates).

[2] = target: T1, MBL containing crude enzyme preparation (Kpn LA-26 NDM-1) (Klebsiella pneumoniae, UniProt C7C422); assay: 1H NMR monitoring of meropenem hydrolysis by MBL crude enzyme preparation; assay type: biochemical; settings: meropenem 0.18 mM, absence of β-IDACYD, 6 h incubation
T1 construct: an MBL containing crude enzyme preparation (Kpn LA-26 NDM-1, 485 µL); endogenous in cells; host or cells: Klebsiella pneumoniae clinical strain LA-26 (crude enzyme preparation)
T1 sequence (C7C422 29-270 limits assumed): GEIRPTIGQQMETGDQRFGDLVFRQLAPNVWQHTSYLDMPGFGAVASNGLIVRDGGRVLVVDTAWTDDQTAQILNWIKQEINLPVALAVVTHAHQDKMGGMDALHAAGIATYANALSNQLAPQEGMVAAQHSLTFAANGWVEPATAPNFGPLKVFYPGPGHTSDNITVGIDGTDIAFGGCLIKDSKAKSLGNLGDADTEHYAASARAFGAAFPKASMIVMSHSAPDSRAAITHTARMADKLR

Klebsiella pneumoniae = assay: MIC of β-lactams alone or with 50 µM IDACYD against clinical isolates; assay type: cell-based; settings: Klebsiella pneumoniae, alone
Procedure: Further the in-vitro inhibitory activity of IDACYDs was tested against highly resistant pathogens. […] Table 2: Collection of clinical isolates used for in-vitro evaluation

C[C@@H](O)[C@H]1C(=O)N2C(C(=O)O)=C(S[C@@H]3CN[C@H](C(=O)N(C)C)C3)[C@H](C)[C@H]12 [Meropenem, reference compound]
0.25 µg/mL: MIC (Proteus mirabilis; read-out: Meropenem MIC, isolate ESDY-17 (VIM, CMY))
~100%: drug hydrolyzed [2]
64 µg/mL: MIC (Klebsiella pneumoniae; read-out: Meropenem MIC, Kpn LA 82/16 (VIM-1)) | MIC (Klebsiella pneumoniae; read-out: Meropenem MIC, isolate ESDY-1780 (VIM, KPC)) | MIC (Klebsiella pneumoniae; read-out: Meropenem MIC, isolate L078/11 (KPC)) | MIC (Klebsiella pneumoniae; read-out: Meropenem MIC, isolate LA-28 (NDM, CTXM)) | MIC (Klebsiella pneumoniae; read-out: Meropenem MIC, isolate LA-34 (VIM, CMY), second entry of Table 3) | MIC (Klebsiella pneumoniae; read-out: Meropenem MIC, isolate LA-82/16 (VIM, SHV)) | MIC (Klebsiella pneumoniae; read-out: Meropenem MIC, isolate LAR-26I/15 (NDM, VIM, CTXM)) | MIC (Klebsiella pneumoniae; read-out: Meropenem MIC, isolate LAR-40II/15 (KPC)) | MIC (Klebsiella pneumoniae; read-out: Meropenem MIC, isolate SEC-2 (VIM)) | MIC (Klebsiella pneumoniae; read-out: Meropenem MIC, isolate UoA 12/227 (VIM)) | MIC (Klebsiella pneumoniae; read-out: Meropenem MIC, isolate UoA 1995 (VIM))
80%: mice protected (survival) [1]
16 µg/mL: MIC (Proteus mirabilis; read-out: Meropenem MIC, Table 5, Pr m ESDY 15315 (VIM-1, CMY)) | MIC (Klebsiella pneumoniae; read-out: Meropenem MIC, Kpn LA419/16 (NDM-1)) | MIC (Klebsiella pneumoniae; read-out: Meropenem MIC, isolate ESDY-5742 (IMP)) | MIC (Klebsiella pneumoniae; read-out: Meropenem MIC, isolate LA-419/16 (NDM,CTXM)) | MIC (Klebsiella pneumoniae; read-out: Meropenem MIC, isolate LAR-38I/15 (VIM, NDM, CTXM))
2 µg/mL: MIC (Escherichia coli; read-out: Meropenem MIC, isolate TZAN-541 (VIM)) | MIC (Enterobacter gergoviae; read-out: Meropenem MIC, isolate AK-5227 (VIM, CMY)) | MIC (Providencia stuartii; read-out: Meropenem MIC, isolate ALX- 21 (VIM, VEB)) | MIC (Providencia stuartii; read-out: Meropenem MIC, isolate ALX-27 (VIM)) | MIC (Providencia stuartii; read-out: Meropenem MIC, isolate ESDY-4563 (VIM, VEB)) | MIC (Proteus mirabilis; read-out: Meropenem MIC, isolate ESDY-15184 (VIM, CMY))
256 µg/mL: MIC (Serratia marcescens) | MIC (Klebsiella pneumoniae; read-out: Meropenem MIC, Kpn LA 34 (VIM-1 CMY)) | MIC (Klebsiella pneumoniae; read-out: Meropenem MIC, Kpn LA 109/16 (VIM-1)) | MIC (Klebsiella pneumoniae; read-out: Meropenem MIC, isolate LA-34 (VIM, CMY), first entry of Table 3)
32 µg/mL: MIC (Acinetobacter baumannii; read-out: Meropenem MIC, isolate TZAN-42 (VIM, OXA-58)) | MIC (Proteus mirabilis; read-out: Meropenem MIC, isolate ALX-13 (VIM, VEB)) | MIC (Klebsiella pneumoniae; read-out: Meropenem MIC, Kpn ESDY 5742 (IMP-1)) | MIC (Klebsiella pneumoniae; read-out: Meropenem MIC, Kpn LA 26 (NDM-1)) | MIC (Klebsiella pneumoniae; read-out: Meropenem MIC, isolate IT-17829 (CTXM, SHV)) | MIC (Klebsiella pneumoniae; read-out: Meropenem MIC, isolate LA-26 (NDM)) | MIC (Klebsiella pneumoniae; read-out: Meropenem MIC, isolate SEC-4 (VIM))
1 µg/mL: MIC (Escherichia coli; read-out: Meropenem MIC, isolate TZAN-116 (VIM)) | MIC (Enterobacter gergoviae; read-out: Meropenem MIC, isolate AK-5240 (VIM, CMY))
8 µg/mL: MIC (Klebsiella pneumoniae; read-out: Meropenem MIC, isolate ALX-47 (OXA-48,CTX-M)) | MIC (Klebsiella pneumoniae; read-out: Meropenem MIC, isolate EY-20S (CMY, SHV)) | MIC (Klebsiella pneumoniae; read-out: Meropenem MIC, isolate LA-27 (NDM, CTXM)) | MIC (Klebsiella pneumoniae; read-out: Meropenem MIC, isolate LAR-2873 (VIM-12))
4 µg/mL: MIC (Providencia stuartii; read-out: Meropenem MIC, isolate ESDY-4559 (VIM)) | MIC (Acinetobacter baumannii; read-out: Meropenem MIC, isolate TZAN-40 (VIM, OXA-58)) | MIC (Proteus mirabilis; read-out: Meropenem MIC, isolate ESDY-15315 (VIM, CMY))
0.5 µg/mL: MIC (Klebsiella pneumoniae; read-out: Meropenem MIC, isolate TZAN-59 (β-lactamase: None))
